Target: T1, aryl hydrocarbon receptor (AHR) (Homo sapiens, UniProt P35869)
T1 sequence (P35869 11-848): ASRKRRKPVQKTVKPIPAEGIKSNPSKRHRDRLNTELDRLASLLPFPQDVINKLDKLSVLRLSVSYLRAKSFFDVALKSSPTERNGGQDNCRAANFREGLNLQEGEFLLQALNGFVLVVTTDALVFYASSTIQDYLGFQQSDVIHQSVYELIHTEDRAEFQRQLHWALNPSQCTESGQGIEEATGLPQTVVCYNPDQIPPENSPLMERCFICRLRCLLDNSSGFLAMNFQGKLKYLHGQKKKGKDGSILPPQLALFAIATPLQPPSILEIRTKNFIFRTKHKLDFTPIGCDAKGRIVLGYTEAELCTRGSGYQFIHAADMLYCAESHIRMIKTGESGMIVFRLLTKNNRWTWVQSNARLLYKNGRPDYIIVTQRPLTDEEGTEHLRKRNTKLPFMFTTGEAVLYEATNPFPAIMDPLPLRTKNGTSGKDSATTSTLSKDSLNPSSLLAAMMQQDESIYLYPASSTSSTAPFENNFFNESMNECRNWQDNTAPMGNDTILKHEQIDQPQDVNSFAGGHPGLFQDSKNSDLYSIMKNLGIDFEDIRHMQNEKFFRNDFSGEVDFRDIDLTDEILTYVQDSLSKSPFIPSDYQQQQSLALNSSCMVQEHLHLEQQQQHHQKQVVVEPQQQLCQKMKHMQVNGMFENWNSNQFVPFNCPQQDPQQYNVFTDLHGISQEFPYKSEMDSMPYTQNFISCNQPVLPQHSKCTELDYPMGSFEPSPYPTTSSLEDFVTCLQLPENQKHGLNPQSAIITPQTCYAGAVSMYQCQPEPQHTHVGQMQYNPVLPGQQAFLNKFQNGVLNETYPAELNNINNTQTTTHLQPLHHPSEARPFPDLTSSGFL
Test: Inhibition of AHR target gene CYP1B1 expression (RT-qPCR) in MOLM-14 cells, endogenous AHR; functional readout only
Format: cell-based

- IC50: 5 nM
Substance: IK-364
